From patent publication US8067532B2, “Modifications of peptide compositions to increase stability and delivery efficiency” (KAI Pharmaceuticals, Inc., priority 2007, dated 2011) come the findings set out here.

No end group written: not given here.

Data set [1] in a line: Plasma stability of capped peptides (KAI-9706 modified step-wise at amino and carboxy termini). It is filed as in vitro ADME, rat. As to conditions: versus uncapped KAI-9706. From the text:
Plasma stability of capped peptides was compared.

The next data set relates to cardiac tissue. Put plainly: Langendorff assay, in vitro post-ischemia model (CK release). The following applies: versus the unmodified form. Set-up: species or system rat. Here is the method: The ability of the capped composition to inhibit ischemic damage in a rat heat model (Langendorff Assay) was evaluated versus the uncapped form.
In the next data set the test system is brain tissue. Put plainly: Stroke model, percent infarction. The data set is classed as in vivo. As to conditions: versus uncapped KAI-9706. Here is the method: KAI-1455 was tested in a stroke model.
For data set [2] the following is noted: versus KAI-9706 and KAI-9803.
For data set [3] the following is noted: versus KAI-9706 and KAI-9803. The source holds these as a separate data set.
The conditions of data set [4]: versus KAI-9706 and KAI-9803. The source holds these as a separate data set.
Data set [5] in a line: Effect of D-peptides on plasma stability of KAI-9706. The following applies: All-L, scrambled or retro-inverso (R/I) carrier and cargo. Here is the method: KAI-9706 was engineered with D-amino acids to determine their impact on peptide composition stability. Unmodified KAI-9706 was compared to a peptide composition with the same amino acid sequence, however the amino acids used were d-enantiomers instead of 1-amino acids. A retro-inverso version and a scrambled version of the peptide composition were also prepared.

Data set [6] can be described thus: In vitro biological stability of linear epsilon PKC inhibitors in human serum. The data set is classed as in vitro ADME. The following applies: LC/MS; for stability in human serum (percent remaining over time): 100 μg/ml, room temperature. Here is the method: The peptides were then analyzed by LC/MS.

Regarding `CC[C@H](C)[C@H](NC(=O)[C@@H]1CCCN1C(=O)[C@H](C)NC(=O)[C@H](CC(=O)O)NC(=O)[C@H](Cc1c[nH]cn1)NC(=O)[C@@H](N)CSSC[C@H](NC(C)=O)C(=O)N[C@@H](Cc1ccc(O)cc1)C(=O)NCC(=O)N[C@@H](CCCNC(=N)N)C(=O)N[C@@H](CCCCN)C(=O)N[C@@H](CCCCN)C(=O)N[C@@H](CCCNC(=N)N)C(=O)N[C@@H](CCCNC(=N)N)C(=O)N[C@@H](CCC(N)=O)C(=O)N[C@@H](CCCNC(=N)N)C(=O)N[C@@H](CCCNC(=N)N)C(=O)N[C@@H](CCCNC(=N)N)C(N)=O)C(=O)NCC(=O)N[C@@H](Cc1ccc(O)cc1)C(=O)N[C@@H](CC(=O)O)C(=O)O` [KAI-1455], the plasma half life entry in data set [1] is listed as “increase the plasma half life”. Further, the “ability to inhibit ischemic damage (potency, CK release)” value in the data set on cardiac tissue was “Maintains In Vitro Potency”. The “protection to brain tissue as judged by percent infract” value in the data set with brain tissue was “increased protection to brain tissue”. For the same molecule, the “stability in human serum (percent intact over time)” value in data set [2] is reported as “increased plasma stability”. Besides, in data set [3], the “stability in pig serum (percent intact over time)” value was “increased plasma stability”. Besides, in data set [4], the “stability in rat serum (percent intact over time)” value is reported as “increased plasma stability”.
Consider `CC[C@H](C)[C@H](NC(=O)[C@@H]1CCCN1C(=O)[C@H](C)NC(=O)[C@H](CC(=O)O)NC(=O)[C@H](Cc1c[nH]cn1)NC(=O)[C@@H](N)CSSC[C@H](N)C(=O)N[C@@H](Cc1ccc(O)cc1)C(=O)NCC(=O)N[C@@H](CCCNC(=N)N)C(=O)N[C@@H](CCCCN)C(=O)N[C@@H](CCCCN)C(=O)N[C@@H](CCCNC(=N)N)C(=O)N[C@@H](CCCNC(=N)N)C(=O)N[C@@H](CCC(N)=O)C(=O)N[C@@H](CCCNC(=N)N)C(=O)N[C@@H](CCCNC(=N)N)C(=O)N[C@@H](CCCNC(=N)N)C(=O)O)C(=O)NCC(=O)N[C@@H](Cc1ccc(O)cc1)C(=O)N[C@@H](CC(=O)O)C(=O)O` [KAI-9706], for which the “% parent remaining at 15 mins” value in data set [5] is 1%.
On to Ac-EAVSLKPTGGYGRKKRRQRRR-NH2 [KP-1678], for which the “stability in human serum (percent remaining over time)” value in data set [6] is given as “increased stability”.
For EAVSLKPTGGYGRKKRRQRRR-NH2 [KP-1633], the “stability in human serum (percent remaining over time)” value in data set [6] is given as “increased stability”.
On to “KP-1680: linear epsilon PKC inhibitor peptide shown in FIG. 16 (EAVSLKPTGGYGRKKRRQRRR)”, for which, in data set [6] (serum), the “degradation products / metabolized forms” value is recorded as “sequential cleavage of arginine residues from the C-terminus”.
